Where two headings read alike, the source gives them in different places.
How the values were obtained:
Format in all cases: cell-based, human
SJSA-1 = experiment: Cell proliferation (Alamar Blue) assay, SJSA-1
Procedure: (§1) Cell viability assay was performed to assess the potency of the compounds in human cancer cell lines 786-0 (renal cell carcinoma) and SJSA-1 (osteosarcoma). Additional cell lines, such as pancreatic cancer cell lines (Panc 02.13, BxPC-3, Panc 12, Panc 02.03, Panc 6.03, PSN-1, HPAC, and Capan-1), prostate cancer cell lines (PC-3, DU145, 22Rv1, NCI-H660, BPH1, LNCaP, BM-1604, and MDA PCa 2b), etc., can be tested in a similar method.
(§2) Cells (SJSA-1, 786-0 and A431) were seeded (5000 cells/100 μL/well) in 96-well tissue culture plate and incubated at 37° C./5% CO2 for 16-24 hours. The cells were then treated with compounds (25 μL of 5×). The compound concentrations were 10-0.0005 μM prepared in 3-fold serial dilutions with final DMSO concentration of 1%. The plates were then incubated for 24 h at 37° C./5% CO2 in a moist environment. Then Alamar Blue™ reagent (final concentration 1×-12.5 μL) was added to each well and incubated for 1.5 hours at 37° C./5% CO2. The plates were read on fluorescence reader at 540 nm excitation and 590 nm emission wavelengths. The IC50 values were subsequently determined using a sigmoidal dose-response curve (variable slope) in GraphPad Prism® 5 software. Table A-3, Table B-3 and Table C-3 show cell proliferation data for certain compounds as described herein.

A431 = experiment: Cell proliferation (Alamar Blue) assay, A431
Procedure: as §1, §2

786-O = experiment: Cell proliferation (Alamar Blue) assay, 786-O
Procedure: as §1, §2

[1] = Homo sapiens, SJSA-1, 24 h, Table B-3, head prints SJSB-1, 24 h, read-out: IC50 (μM) SJSB-1
[2] = Homo sapiens, A-431, 24 h, Table B-3, A431 cells
[3] = Homo sapiens, 786-0, 24 h, Table B-3, 786-O cells
[4] = Homo sapiens, SJSA-1, 24 h, Table C-3, SJSA-1 cells, 24 h, read-out: IC50 (μM) SJSA-1
[5] = Homo sapiens, A-431, 24 h, Table C-3, A431 cells
[6] = Homo sapiens, 786-0, 24 h, Table C-3, 786-O cells
[7] = Table B-3, head prints SJSB-1, 24 h, read-out: IC50 (μM) SJSB-1

| SMILES | IC50 (SJSA-1; [1]) [µM] | IC50 (A431; [2]) [µM] | IC50 (786-O; [3]) [µM] | also measured |
| --- | --- | --- | --- | --- |
| C#CC(=O)N1[C@@H](CCCC)Cc2c([nH]c3c(F)cc(F)cc23)[C@@H]1c1ccc(NC(=O)CCCCC(=O)O)cc1 [Compound B-87] | > 10 | > 10 | > 10 |  |
| C#CC(=O)N1[C@@H](CCCC)Cc2c([nH]c3c(F)cc(F)cc23)[C@@H]1CCC [Compound C-3] |  |  |  | IC50 (SJSA-1; [4]): 0.22 µM; IC50 (A431; [5]): > 10 µM; IC50 (786-O; [6]): 0.14 µM |
| C#CC(=O)N1[C@@H](CCCC)Cc2c(n(CC#N)c3c(F)cc(F)cc23)[C@@H]1c1ccc(NC(=O)OCCCCC)cc1 [Compound B-97] | 0.0455 | 6.35 | 0.071 |  |
| C#CC(=O)N1[C@@H](CCCC)Cc2c([nH]c3ccccc23)[C@]1(C)c1ccc(F)cc1 [Compound C-11] |  |  |  | IC50 (SJSA-1; [4]): 0.22 µM; IC50 (A431; [5]): > 10 µM; IC50 (786-O; [6]): 0.098 µM |
| C#CC(=O)N1[C@@H](CCCC)Cc2cc(OC)ccc2[C@]1(C)c1ccc(NC23CC4CC(CC(C4)C2)C3)cc1 [Compound C-35] |  |  |  | IC50 (A431; [5]): > 10 µM; IC50 (786-O; [6]): 0.45 µM |
| C#CC(=O)N1[C@@H](CCCC)Cc2c([nH]c3ccccc23)[C@@H]1CCCCCC [Compound B-93] | 0.077 | > 10 | 0.091 |  |
| COC(=O)[C@H]1Cc2c([nH]c3ccccc23)[C@@H](c2ccc(N(C(=O)CCCC[C@@H]3SC[C@@H]4NC(=O)N[C@@H]43)C3CC3)cc2)N1C(=O)CCl [Compound B-9, methyl (1R,3R)-2-(2-chloroacetyl)-1-(4-(N-cyclopropyl-5-((3aS,4S,6aR)-2-oxohexahydro-1H-thieno[3,4-d]imidazol-4-yl)pentanamido)phenyl)-2,3,4,9-tetrahydro-1H-pyrido[3,4-b]indole-3-carboxylate] | > 10 |  | > 10 |  |
| C#CC(=O)N1C(c2ccn(-c3ccc(F)cc3)n2)c2[nH]c3ccccc3c2C[C@@H]1CCCC (some centres unmarked) [Compound B-62] | 0.021 | 6.4 | 0.029 |  |
| C#CC(=O)N1[C@@H](CCCC)Cc2c([nH]c3ccccc23)[C@@H]1c1ccc(NC23CC4CC(CC(C4)C2)C3)cc1 [Compound B-17] |  |  |  | IC50 (SJSA-1; [7]): 0.008 µM; IC50 (A431; Table B-3, A431 cells, 24 h): 3.6 µM; IC50 (786-O; Table B-3, 786-O cells, 24 h): 0.006 µM |
| C#CC(=O)N1[C@@H](CCC)Cc2c([nH]c3ccccc23)[C@@H]1c1ccc(NC23CC4CC5CC(C2)C54C3)cc1 (some centres unmarked) [Compound B-67] | 0.0025 | 2 | 0.006 |  |
| C#CC(=O)N1[C@@H](CCCC)Cc2c([nH]c3c(F)cc(F)cc23)[C@@H]1C1CCC2(CC1)OCCO2 [Compound B-99] | 0.504 | > 10 | 0.207 |  |
| C#CC(=O)N1[C@@H](CCCC)Cc2c([nH]c3c(F)cc(F)cc23)[C@@H]1CCCCCCCC [Compound C-21] |  |  |  | IC50 (SJSA-1; [4]): 0.08 µM; IC50 (A431; [5]): 9.4 µM; IC50 (786-O; [6]): 0.07 µM |
| C[C@H]1Cc2c([nH]c3ccccc23)[C@](C)(c2ccc(F)cc2)N1C(=O)CCl [Compound C-18] |  |  |  | IC50 (SJSA-1; [4]): 0.332 µM; IC50 (786-O; [6]): 0.437 µM |
| C#CC(=O)N1[C@@H](CC)Cc2c([nH]c3c(F)cc(F)cc23)[C@@H]1c1ccc(F)cc1 [Compound B-61] | 0.068 | > 10 | 0.062 |  |
| C#CC(=O)N1[C@@H](CCCC)Cc2c([nH]c3ccc(F)cc23)[C@@H]1c1ccc(C(=O)NCCOC)cc1 [Compound B-11] | 0.025 | 4.3 | 0.008 |  |
| C#CC(=O)N1[C@@H](CCCC)Cc2c([nH]c3ccccc23)[C@@H]1c1ccc(NC(=O)c2ccncc2)cc1 [Compound B-15] | 0.029 | > 10 | 0.013 |  |
| C#CC(=O)N1[C@@H](CCCC)Cc2c(sc3ccccc23)[C@@H]1c1ccc(NC(=O)OCCCCC)cc1 [Compound B-100] | 0.04 | 7.84 | 0.0285 |  |
| C#CC(=O)N1[C@@H](CCCC)Cc2c([nH]c3c(F)cc(F)cc23)[C@@H]1c1ccc(N2CCN(C)CC2)cc1 [Compound B-57] | 0.063 | > 10 | 0.059 |  |
| C#CC(=O)N1[C@@H](CCCC)Cc2c([nH]c3c(F)cc(F)cc23)[C@@H]1C1CCN(C(=O)OC)CC1 [Compound B-75] |  |  |  | IC50 (SJSA-1; [7]): 0.06 µM; IC50 (786-O; Table B-3, 786-O cells, 24 h): 0.03 µM |
| C#CC(=O)N1[C@@H](CCCC)Cc2c([nH]c3c(F)cc(F)cc23)[C@@H]1c1nccn1C [Compound B-24] | 0.167 | > 10 | 0.123 |  |

| SMILES | IC50 (SJSA-1; [1]) [µM] | IC50 (A431; [2]) [µM] | IC50 (786-O; [3]) [µM] | also measured |
| --- | --- | --- | --- | --- |
| CC1(c2ccc(F)cc2)c2[nH]c3ccccc3c2CCN1C(=O)CCl (centres unmarked) [Compound C-20] |  |  |  | IC50 (SJSA-1; [4]): 3.98 µM; IC50 (786-O; [6]): 4.49 µM |
| C#CC(=O)N1[C@@H](CCCC)Cc2c([nH]c3c(F)cc(F)cc23)[C@@H]1C(C)C [Compound B-72] | 0.223 | > 10 | 0.222 |  |
| CCCC[C@H]1Cc2c([nH]c3ccccc23)[C@H](c2ccc(C(=O)NC34CC5CC(CC(C5)C3)C4)cc2)N1C(=O)CCl [Compound B-1, N-((1R,3R)-adamantan-1-yl)-4-((1S,3S)-3-butyl-2-(2-chloroacetyl)-2,3,4,9-tetrahydro-1H-pyrido[3,4-b]indol-1-yl)benzamide] | 0.003 | 2.7 | 0.001 |  |
| C#CC(=O)N1[C@@H](CCCC)Cc2c([nH]c3c(F)cc(F)cc23)[C@@H]1C12CC(NC(=O)OCCCCC)(C1)C2 [Compound B-84] | 0.084 |  | 0.086 |  |
| C#CC(=O)N1[C@@H](CCCC)Cc2c([nH]c3c(F)cc(F)cc23)[C@@H]1c1ccc(NC(=O)OCCCCC)cc1 [Compound B-91] |  |  |  | IC50 (SJSA-1; [7]): 0.075 µM; IC50 (786-O; Table B-3, 786-O cells, 24 h): 0.076 µM |
| CCCCCOC(=O)Nc1ccc([C@H]2c3[nH]c4c(F)cc(F)cc4c3C[C@H](CCCC)N2C(=O)CCl)cc1 [Compound B-89] | 0.002 | > 10 | 0.008 |  |
| CCCC[C@H]1Cc2c([nH]c3ccccc23)[C@H](c2ccc(NC(=O)c3ccncc3)cc2)N1C(=O)CCl [Compound B-14] | 0.019 | 3 | 0.015 |  |
| C#CC(=O)N1[C@@H](CCCC)Cc2c([nH]c3c(F)cc(F)cc23)[C@@H]1CCCC [Compound B-74] | 0.04 | 4.4 | 0.05 |  |
| C#CC(=O)N1[C@@H](CCCC)Cc2c([nH]c3c(F)cc(F)cc23)[C@@H]1CC(C)C [Compound B-82] | 0.16 | > 10 | 0.2 |  |
| CCCC[C@H]1Cc2c([nH]c3c(F)cc(F)cc23)[C@H](c2ccc(N)cc2)N1C(=O)CCl [Compound B-85] | 0.024 | > 10 | 0.012 |  |
| C#CC(=O)N1C(CCCC)Cc2c([nH]c3ccccc23)[C@H]1c1ccc(CNCC23CC4CC(CC(C4)C2)C3)cc1 (some centres unmarked) [Compound B-45B] | 0.011 | 1.7 | 0.005 |  |
| C#CC(=O)N1[C@@H](CCCC)Cc2c([nH]c3ccccc23)[C@@H]1c1ccc(N2C3CCC2COC3)cc1 [Compound B-66, 1-((1 S,3 S)-1-(4-(3-oxa-8-azabicyclo[3.2.1]octan-8-yl)phenyl)-3-butyl-1,3,4,9-tetrahydro-2H-pyrido[3,4-b]indol-2-yl)prop-2-yn-1-one] |  | 4.35 |  |  |
| C#CC(=O)N1[C@@H](CCCC)Cc2c(oc3ccccc23)[C@@H]1c1ccc(NC(=O)OCCCCC)cc1 [Compound B-101] |  | 7.97 | 0.155 |  |
| COC(=O)[C@H]1Cc2c([nH]c3ccccc23)[C@H](c2ccc(N(C(=O)CCCC[C@@H]3SC[C@@H]4NC(=O)N[C@@H]43)C3CC3)cc2)N1C(=O)CCl [Compound B-8, methyl (1S,3R)-2-(2-chloroacetyl)-1-(4-(N-cyclopropyl-5-((3aS,4S,6aR)-2-oxohexahydro-1H-thieno[3,4-d]imidazol-4-yl)pentanamido)phenyl)-2,3,4,9-tetrahydro-1H-pyrido[3,4-b]indole-3-carboxylate] | 1.9 |  | 1.7 |  |
| C#CC(=O)N1[C@@H](CCCC)Cc2c([nH]c3ccccc23)[C@@H]1c1ccc(NC23CC4CC(CC(O)(C4)C2)C3)cc1 [Compound B-44] | 0.014 |  | 0.006 |  |
| C#CC(=O)N1[C@@H](CCCC)Cc2c(n(CC(O)CO)c3c(F)cc(F)cc23)[C@@H]1c1ccc(NC(=O)OCCCCC)cc1 (some centres unmarked) [Compound B-98] |  | > 10 | 0.181 |  |
| C#CC(=O)N1[C@@H](CCCC)Cc2cc(OC)ccc2[C@@]1(C)c1ccc(NC23CC4CC(CC(C4)C2)C3)cc1 [Compound C-36] |  |  |  | IC50 (A431; [5]): > 10 µM; IC50 (786-O; [6]): 0.69 µM |
| C#CC(=O)N1CCc2c([nH]c3ccccc23)C1(C)c1ccc(F)cc1 (centres unmarked) [Compound C-19] |  |  |  | IC50 (SJSA-1; [4]): 1.89 µM; IC50 (786-O; [6]): 2.32 µM |
| C#CC(=O)N1[C@@H](CCCC)Cc2c(n(C)c3c(F)cc(F)cc23)[C@@H]1c1ccc(NC(=O)OCCCCC)cc1 [Compound B-96] | 0.293 |  | 0.08 |  |

From patent publication US20220227765A1, “PYRIDO-INDOLE ANALOGUES AS GPX4 INHIBITORS” (Ferro Therapeutics, Inc., priority 2019, published 2022)
